# Where “and” joins values, the source holds several entries; their conditions need not be identical. Equal entries are not always repeated. Marks after values point to notes of the source that are not given here.
# Columns and labels:
# [1] = tested on: human renal cell adenocarcinoma (786-O cell line); test: Renal cell adenocarcinoma xenograft: histology and IHC (viable carcinoma size, necrosis, lymphohistiocytic infiltrate); type: in vivo, Sprague-Dawley Rag2; Il2rg null (SRG®) rat
# From the text: Microscopic Examination: Tissues fixed with 10% NBF were embedded in paraffin. Each tumor was cut into 2-3 pieces and embedded and sectioned together.
# [2] = tested on: UM-UC-3 bladder cancer cell line (ATCC-CRL-1749) tumors; test: Human bladder cancer (UM-UC-3) mouse xenograft study: tumor volume, body weight, observations; type: in vivo, Hsd:Athymic Nude-Foxnlnu nude mice
# Procedure: Tumor volume was determined with calipers. […] Animals were weighed 2×/week.
# At day 18 after tumor implant, when average tumor size was between 50-325 mm^3, animals were sorted into five groups with equal average tumor sizes and were treated as shown in Table 25 below.
# The second treatments (2nd cycle) occurred 7 days following first treatment (1st cycle) and third treatments (3rd cycle) occurred 14 days following the first treatment. The docetaxel solution IV was administered via the tail vein.
# Vehicle (Control): Diluted 1 ml of the 1% Polysorbate 80/8% Ethanol in normal saline (0.9% Sodium Chloride for Injection) reconstitution solution with 1.5 mL of normal saline (0.9% Sodium Chloride for Injection, USP). […] Vigorously hand shook the vial with inversions for 1 minute. […] Allowed the suspension to sit undisturbed for at least 5 minutes to reduce entrapped air and foam. […] Vortexed to mix.
# [3] = tested on: immune cells (CD45+, CD4+, CD8+, Treg, MDSC, M1 and M2 macrophages) in tumor tissue; test: Renca study: flow cytometry of immune cells in tumor tissue; type: in vivo, female BALB/c mice; conditions: individual animals, IV docetaxel group
# Procedure: Organ Collection: Tumor (divide into 2 parts). […] Sent to laboratory for IHC staining. Part 2: preservation—processed to single cell suspension, shipping condition—4° C. (wet ice). Retained at CRL-NC for flow cytometry. See Flow panel in Table 40 below. Tumor preservation for early euthanasia in Groups 2-10: Excised tumor and surrounding area from the mammary fat pad area (cranial) to just past tumor (caudal). The region included the inguinal lymph node. Sectioned this sample every 4 mm from the cranial to caudal end and enclosed in separate cassettes labeled in order.
# (§1) Peripheral blood and tumor tissue were collected for analysis via flow cytometry. Cell types analyzed included T-Cells: CD4+, CD8+(Tumor Suppression); Treg (Tumor Promotion); M1 Macrophages (Tumor Suppression); M2 Macrophages (Tumor Promotion); and […].
# [4] = tested on: human renal cell adenocarcinoma (786-O cell line); test: Rat xenograft model of human renal cell adenocarcinoma: tumor volume, body weight, observations; type: in vivo, Sprague-Dawley Rag2; Il2rg null (SRG®) rat; conditions: IV docetaxel, 3 weekly cycles
# [5] = tested on: Renca syngeneic renal carcinoma; test: Renca syngeneic xenograft study: secondary tumor growth (groups 8-10); type: in vivo, female BALB/c mice; conditions: IV docetaxel doses
# Procedure: The schedule in Table 39 was followed.
# Cell Injection Volume: 0.1 mL/mouse. Age at Start Date: 8 to 12 weeks. […] Body Weight: 5/2 then tiwk to end. Caliper Measurement: tiwk to end. Double caliper measurements were performed for Groups 8-10. […] The group was not euthanized and recovery was allowed.
# Endpoints: Groups 1-7: Endpoint TGI. Animals were monitored as a group.
# [6] = tested on: immune cells (CD45+, CD4+, CD8+, Treg, MDSC, M1 and M2 macrophages) in blood; test: Renca study: flow cytometry of immune cells in blood; type: in vivo, female BALB/c mice; conditions: IV Docetaxel, individual animals
# Procedure: Blood Collection: Collected full volume blood by terminal cardiac puncture under isoflurane anesthesia. Processed blood for: Whole Blood: anti-coagulant—K2EDTA, preservation—Cooled 4° C., shipping condition—4° C. (wet ice). Retained at CRL-NC for flow cytometry. See Flow panel in Table 40 below.
# as §1
# [7] = tested on: Renca syngeneic renal carcinoma
# From the text: Animals were monitored as a group. […] When the endpoint was reached, all the animals were euthanized. […]
# [8] = tested on: UM-UC-3 bladder cancer cell line (ATCC-CRL-1749) tumors; test: Bladder cancer xenograft: histology and IHC (viable carcinoma size, necrosis, macrophage infiltrate, TLS, necropsy volume); type: in vivo, Hsd:Athymic Nude-Foxnlnu nude mice
# [9] = Solubility of the active in receptor fluid; type: physicochemical; conditions: 96 wt % PBS pH 7.4 and 4 wt % HPBCD
# Procedure: The receptor fluid was degassed by filtering the receptor fluid through a ZapCap CR 0.2 μm membrane while pulling vacuum. The filtered receptor fluid was stirred for an additional 20 minutes while maintaining vacuum to ensure complete degassing.
# [10] = IV Docetaxel 3 cycles, 2 animals
# [11] = IV docetaxel 3 cycles, two cases
structure (smiles),measurement,setting,value
CC(=O)O[C@@]12CO[C@@H]1C[C@H](O)[C@@]1(C)C(=O)[C@H](O)C3=C(C)[C@@H](OC(=O)[C@H](O)[C@@H](NC(=O)OC(C)(C)C)c4ccccc4)C[C@@](O)([C@@H](OC(=O)c4ccccc4)[C@H]21)C3(C)C [Doce],Number of animals with <5% of tissue showing necrosis,"[1]; IV docetaxel, 2 animals",2
same,Lymphohistiocytic infiltrate density: number of animals graded Mild,"[1]; IV docetaxel, 2 animals, H/E and CD11b IHC",2
CC(=O)O[C@@]12CO[C@@H]1C[C@H](O)[C@@]1(C)C(=O)[C@H](O)C3=C(C)[C@@H](OC(=O)[C@H](O)[C@@H](NC(=O)OC(C)(C)C)c4ccccc4)C[C@@](O)([C@@H](OC(=O)c4ccccc4)[C@H]21)C3(C)C [docetaxel],histology vs vehicle control (H&E),"[1]; Docetaxel (IV) 3 cycles, female rat",no difference
same,Number of animals with residual viable carcinoma >10 mm on slide,"[1]; IV docetaxel, 2 animals",2
same,tumor volumes,"[2]; Docetaxel IV 30 mg/kg, 3 cycles, 61 days",decreased initially
same,effectiveness by initial tumor size,[2]; Docetaxel IV 3 cycles,"somewhat effective at treating small tumors, but not very effective in treating large tumors"
same,initial animal weight loss,"[2]; Docetaxel IV 3 cycles vs nDoce IT 1, 2, 3 cycles",generally greater
same,signs of peripheral neuropathy,[2]; Docetaxel IV 3 cycles vs nDoce IT 3 cycles,greater signs of peripheral neuropathy
same,CD8 (% of CD45),[3],0.75% and 0.5% and 0.28% and 0.31% (2×) and 0.061% and 0.32% and 0.45% and 0.81% and 0.33%
same,CD8 Count,[3],33 and 40 and 26 and 193 and 9 and 145 and 36 and 214 and 137 and 270
same,CD45 (% of Live),[3],38.2% and 42.8% and 52.7% and 68.9% and 74.1% and 57.8% and 32.5% and 63.3% and 73% and 67.2%
same,CD45 Count,[3],4375 and 8052 and 9275 and 62614 and 14728 and 45332 and 8088 and 26310 and 41555 and 86029
same,Conv CD4 (% of CD45),[3],1.23% and 1.15% and 1.51% and 0.44% and 0.16% and 0.58% and 0.62% and 2.55% and 1.65% and 0.59%
same,Conv CD4 Count,[3],54 and 93 and 140 and 275 and 23 and 265 and 50 and 670 and 687 and 509
same,Live Count,[3],11443 and 18796 and 17590 and 90940 and 19863 and 78365 and 24901 and 41595 and 56947 and 128055
same,M1 Mac (% of CD45),[3],10.5% and 6.97% and 8.59% and 8.44% and 3.34% and 9.16% and 8.65% and 7.47%
same,M1 Mac Count,[3],460 and 561 and 797 and 5285 and 492 and 4154 and 700 and 3186 and 5446 and 6428
same,M2 Mac (% of CD45),[3],28% and 25.2% and 18.6% and 25.3% and 2.66% and 54.1% and 8.62% and 26.9% and 52.8% and 67.2%
same,M2 Mac Count,[3],1223 and 2030 and 1727 and 15846 and 392 and 24543 and 697 and 7074 and 21953 and 57825
same,MDSC (% of CD45),[3],25.1% and 32.8% and 42.5% and 44% and 83.3% and 20% and 70.4% and 37.3% and 10.4%
same,MDSC Count,[3],1098 and 2644 and 3940 and 27578 and 12265 and 9063 and 5696 and 9821 and 4302 and 11067
same,Treg (% of CD45),[3],1.58% and 0.55% and 0.32% and 0.62% and 0.16% and 0.54% and 0.21% and 1.05% and 0.42% and 0.6%
same,Treg Count,[3],69 and 44 and 30 and 386 and 23 and 244 and 17 and 276 and 176 and 520
same,tumor growth compared to vehicle control,[4],partial tumor growth inhibition
same,growth rate of the secondary Renca tumors,[5],did not reduce the growth rate
same,CD8 (% of CD45),[6],1.18 % of CD45 and 1.46 % of CD45 and 1.58 % of CD45 and 1.55 % of CD45 and 1.59 % of CD45 and 0.55 % of CD45 and 1.28 % of CD45 and 1.03 % of CD45 and 1.02 % of CD45 and 0.73 % of CD45
same,CD8 Count,[6],17438 and 12556 and 18524 and 4199 and 7615 and 8711 and 14504 and 9765 and 8882 and 12561
same,CD45 (% of Live),[6],98.5 % of Live and 80.9 % of Live and 97.9 % of Live and 95.7 % of Live (2×) and 96.1 % of Live and 95.5 % of Live and 95.6 % of Live and 97 % of Live and 96.4 % of Live
same,CD45 Count,[6],1360000 (2×) and 1180000 and 1200000 and 1010000 and 348468 and 983000 and 1340000 and 1210000 and 968000
same,Conv CD4 (% of CD45),[6],2.49 % of CD45 and 3.95 % of CD45 and 3.1 % of CD45 and 2.64 % of CD45 and 2.38 % of CD45 and 1.58 % of CD45 and 3.25 % of CD45 and 1.32 % of CD45 and 2.46 % of CD45 and 1.77 % of CD45
same,Conv CD4 Count,[6],44244 and 33048 and 31633 and 9629 and 12646 and 22949 and 34177 and 22034 and 21457 and 27808
same,Live Count,[6],1420000 and 1220000 and 1250000 and 1030000 and 350478 and 1390000 and 1010000 and 1360000 and 1260000 and 997000
same,M1 Mac (% of CD45),[6],15.1 % of CD45 and 9.39 % of CD45 and 12.3 % of CD45 and 6.95 % of CD45 and 7.96 % of CD45 and 6.79 % of CD45 and 9.93 % of CD45 and 10.7 % of CD45 and 9.78 % of CD45 and 9.15 % of CD45
same,M1 Mac Count,[6],135234 and 150642 and 83214 and 124451 and 18526 and 145555 and 84022 and 122157 and 110868 and 43948
same,M2 Mac (% of CD45),[6],0.12 % of CD45 and 0.054 % of CD45 and 0.066 % of CD45 and 0.14 % of CD45 and 0.17 % of CD45 and 0.2 % of CD45 and 0.056 % of CD45 and 0.48 % of CD45 and 0.07 % of CD45 and 0.19 % of CD45
same,M2 Mac Count,[6],765 and 815 and 1633 and 582 and 373 and 875 and 257 and 2069 and 2323 and 512
same,MDSC (% of CD45),[6],72.7 % of CD45 and 64.8 % of CD45 and 63.3 % of CD45 and 75.9 % of CD45 and 72.8 % of CD45 and 79 % of CD45 and 73.4 % of CD45 and 72.5 % of CD45 and 77.7 % of CD45 and 76.3 % of CD45
same,MDSC Count,[6],1000000 (2×) and 871000 and 909000 and 742000 and 255851 and 734000 (2×) and 1010000 and 925000
same,Treg (% of CD45),[6],0.092 % of CD45 and 0.22 % of CD45 and 0.13 % of CD45 and 0.073 % of CD45 and 0.035 % of CD45 and 0.078 % of CD45 and 0.087 % of CD45 and 0.047 % of CD45 and 0.1 % of CD45 and 0.071 % of CD45
same,Treg Count,[6],1182 and 578 and 872 and 461 and 222 and 871 and 1300 and 870 and 856 and 992
same,tumor volume compared to vehicle,[7]; IV docetaxel Day 1 (10 mg/kg) and Day 11 (5 mg/kg),No difference
same,toxicity leading to modified administration schedule,"[7]; mouse, in vivo, iv",systemic toxicity
same,general histological observation (H&E),[8]; Docetaxel Solution IV 3 cycles,many viable appearing tumor masses with some macrophage and occasional lymphocytic response along with some tumor necrosis
same,animals with 11-50% of tumor showing necrosis,[8]; [10],1
same,animals with 50-90% of tumor showing necrosis,[8]; [10],1
same,animals with maximum size of viable invasive carcinoma on the slide >10 mm,[8]; [10],2*
same,Macrophage infiltrate density: number of animals graded Mild,"[8]; IV Docetaxel 3 cycles, surrounding non-neoplastic tissue, H&E and CD68 IHC",2
same,TLSs,[8]; [11],no TLSs present
same,"tumor masses, maximum dimension on the slide",[8]; [11],11 mm and 15 mm
CC(=O)O[C@H]1C(=O)[C@@]2(C)[C@H]([C@H](OC(=O)c3ccccc3)[C@]3(O)C[C@H](OC(=O)[C@H](O)[C@@H](NC(=O)c4ccccc4)c4ccccc4)C(C)=C1C3(C)C)[C@]1(OC(C)=O)CO[C@@H]1C[C@@H]2O [paclitaxel],solubility in the receptor fluid,[9],~0.4 µg/mL
